The target of this assay is T1, Human Factor XIIa (Homo sapiens, UniProt P00748).
T1 construct: Proteolytic cleavage of FXII to heavy and light chains of FXIIa dramatically increases catalytic activity; purchased Enzyme Research Laboratories
T1 sequence (P00748 373-615 limits assumed): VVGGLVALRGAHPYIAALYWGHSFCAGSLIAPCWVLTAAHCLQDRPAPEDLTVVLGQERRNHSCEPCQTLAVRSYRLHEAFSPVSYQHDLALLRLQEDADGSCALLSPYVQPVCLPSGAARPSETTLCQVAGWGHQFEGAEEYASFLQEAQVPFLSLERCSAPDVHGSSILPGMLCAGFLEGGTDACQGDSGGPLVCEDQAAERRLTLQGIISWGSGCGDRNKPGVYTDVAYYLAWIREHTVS
T1 sequence (P00748 20-372 partner limits assumed): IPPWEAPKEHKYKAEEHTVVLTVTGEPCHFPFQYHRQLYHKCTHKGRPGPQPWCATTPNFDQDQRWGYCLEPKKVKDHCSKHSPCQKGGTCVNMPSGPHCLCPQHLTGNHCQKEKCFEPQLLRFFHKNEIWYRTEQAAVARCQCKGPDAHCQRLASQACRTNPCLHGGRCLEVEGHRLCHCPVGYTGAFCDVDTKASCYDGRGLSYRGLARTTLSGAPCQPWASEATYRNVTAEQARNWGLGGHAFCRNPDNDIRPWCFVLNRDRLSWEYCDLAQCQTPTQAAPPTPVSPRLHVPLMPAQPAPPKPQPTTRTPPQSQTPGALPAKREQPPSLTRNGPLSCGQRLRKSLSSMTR
The assay can be described thus: Determination of FXIIa inhibition (fluorogenic substrate H-DPro-Phe-Arg-AFC, IC50 assay). Type of assay: biochemical. The following applies: substrate at Km concentration, 25° C.; category scale; read-out: Human FXII IC50 (nm). As to the method:
In vitro inhibition of Factor XIIa was determined using an IC50 assay based on standard literature methods (see e.g Baeriswyl et al., ACS Chem. Biol., 2015, 10 (8) 1861; Bouckaert et al., European Journal of Medicinal Chemistry 110 (2016) 181). Human Factor XIIa (Enzyme Research Laboratories) was incubated at 25° C. with the fluorogenic substrate H-DPro-Phe-Arg-AFC (Peptide Protein Science) and various concentrations of the test compound. Protease activity was measured by monitoring the accumulation of liberated fluorescence from the substrate over 5 min at 25° C. The linear rate of fluorescence increase per minute was expressed as percentage (%) activity. The Km for the cleavage of the substrate by FXIIa was determined by standard transformation of the Michaelis-Menten equation. The compound inhibitor assays were performed at substrate Km concentration. IC50 values were calculated as the concentration of inhibitor giving 50% inhibition (IC50) of the uninhibited enzyme activity (100%).
Take `Nc1nccc2c(NCC34CC(COc5ccnnc5)(CCO3)C4)cccc12` [Example 10963, N5-((5-((pyridazin-4-yloxy)methyl)-2-oxabicyclo[3.1.1]heptan-1-yl)methyl)isoquinoline-1,5-diamine]: the IC50 is 3000 to 10000 nM. With `Nc1nccc2c(NCC34CC(COc5ccn6cnnc6c5)(C3)C4)cccc12` [Example 1135, N5-((3-(([1,2,4]triazolo[4,3-a]pyridin-7-yloxy)methyl)bicyclo[1.1.1]pentan-1-yl)methyl)isoquinoline-1,5-diamine] the figure was 300 to 1000 nM; with `Cc1cc(OCC23CCOC(CNc4cccc5c(N)nccc45)(C2)C3)ncn1` [Example 10971, N5-((5-(((6-methylpyrimidin-4-yl)oxy)methyl)-2-oxabicyclo[3.1.1]heptan-1-yl)methyl)isoquinoline-1,5-diamine], 300 to 1000 nM. The same measure for `Cn1ccc(OCC23CN(C(=O)NCc4cccc(C(F)(F)F)c4)C(CNc4cccc5c(N)nccc45)(C2)C3)cc1=O` [Example 12069, 1-(((1-aminoisoquinolin-5-yl)amino)methyl)-4-(((1-methyl-2-oxo-1,2-dihydropyridin-4-yl)oxy)methyl)-N-(3-(trifluoromethyl)benzyl)-2-azabicyclo[2.1.1]hexane-2-carboxamide]: 10 to 100 nM; for `Cn1ccc(OCC23CC(CNc4cccc5c(N)nccc45)(CN2C(=O)CCc2ccccc2Cl)C3)cc1=O` [Example 13017, 4-((4-(((1-aminoisoquinolin-5-yl)amino)methyl)-2-(3-(2-chlorophenyl)propanoyl)-2-azabicyclo[2.1.1]hexan-1-yl)methoxy)-1-methylpyridin-2(1H)-one]: 300 to 1000 nM; for `Nc1nccc2c(NCC34CC(COc5ccn6c(C(F)(F)F)cnc6c5)(CCO3)C4)cccc12` [Example 10932, N5-((5-(((3-(trifluoromethyl)imidazo[1,2-a]pyridin-7-yl)oxy)methyl)-2-oxabicyclo[3.1.1]heptan-1-yl)methyl)isoquinoline-1,5-diamine]: 100 to 300 nM. The same measure for `Cn1ccc(OCC23CN(C(=O)CCc4cccc5cnccc45)C(CNc4cccc5c(N)nccc45)(C2)C3)cc1=O` [Example 12047, 4-((1-(((1-aminoisoquinolin-5-yl)amino)methyl)-2-(3-(isoquinolin-5-yl)propanoyl)-2-azabicyclo[2.1.1]hexan-4-yl)methoxy)-1-methylpyridin-2(1H)-one]: 10 to 100 nM; for `Cn1ccc(OCC23CN(C(=O)CCc4cccc(OC(F)F)c4)C(CNc4cccc5c(N)nccc45)(C2)C3)cc1=O` [Example 12056, 4-((1-(((1-aminoisoquinolin-5-yl)amino)methyl)-2-(3-(3-(difluoromethoxy)phenyl)propanoyl)-2-azabicyclo[2.1.1]hexan-4-yl)methoxy)-1-methylpyridin-2(1H)-one]: 10 to 100 nM; for `Nc1nccc2c(NCC34CC(COc5ccn6ncnc6c5)(C3)C4)cccc12` [Example 1110, N5-((3-(([1,2,4]triazolo[1,5-a]pyridin-7-yloxy)methyl)bicyclo[1.1.1]pentan-1-yl)methyl)isoquinoline-1,5-diamine]: 3000 to 10000 nM. On to `COC(=O)N1CC2(COc3ccn(C)c(=O)c3)CC1(CNc1ccc3c(N)nccc3c1)C2` [Example 12013, methyl 1-(((1-aminoisoquinolin-6-yl)amino)methyl)-4-(((1-methyl-2-oxo-1,2-dihydropyridin-4-yl)oxy)methyl)-2-azabicyclo[2.1.1]hexane-2-carboxylate], for which the IC50 was 300 to 1000 nM. With `Cn1ccc(OCC23CN(C(=O)NCc4ccccc4F)C(CNc4cccc5c(N)nccc45)(C2)C3)cc1=O` [Example 12058, 1-(((1-aminoisoquinolin-5-yl)amino)methyl)-N-(2-fluorobenzyl)-4-(((1-methyl-2-oxo-1,2-dihydropyridin-4-yl)oxy)methyl)-2-azabicyclo[2.1.1]hexane-2-carboxamide] the figure was 10 to 100 nM; with `Cc1cnc2ccc(OCC34COC(CNc5ccccc5CC(F)(F)F)(C3)C4)cn12` [Example 6659, N-((4-(((3-methylimidazo[1,2-a]pyridin-6-yl)oxy)methyl)-2-oxabicyclo[2.1.1]hexan-1-yl)methyl)-2-(2,2,2-trifluoroethyl)aniline], 40000 to 100000 nM; with `Cn1ccc(OCC23CC(CNc4cccc5c(N)nccc45)(CN2C(=O)OC(C)(C)C)C3)cc1=O` [Example 13005, tert-butyl 4-(((1-aminoisoquinolin-5-yl)amino)methyl)-1-(((1-methyl-2-oxo-1,2-dihydropyridin-4-yl)oxy)methyl)-2-azabicyclo[2.1.1]hexane-2-carboxylate], 100 to 300 nM.

For the compound `Cn1ccc(OCC23CN(C(=O)Cc4ccc5occc5c4)C(CNc4cccc5c(N)nccc45)(C2)C3)cc1=O` [Example 12034, 4-((1-(((1-Aminoisoquinolin-5-yl)amino)methyl)-2-(2-(benzofuran-5-yl)acetyl)-2-azabicyclo[2.1.1]hexan-4-yl)methoxy)-1-methylpyridin-2(1H)-one], the IC50 fell in the range of 10 to 100 nM. Consider `Nc1nccc2c(NCC34CC(COc5cc(C(F)(F)F)c6nccn6c5)(CO3)C4)cccc12` [Example 6630, N5-((4-(((8-(trifluoromethyl)imidazo[1,2-a]pyridin-6-yl)oxy)methyl)-2-oxabicyclo[2.1.1]hexan-1-yl)methyl)isoquinoline-1,5-diamine], for which the IC50 was 100 to 300 nM. The same measure for `Nc1nccc2c(NCC34CC(Cn5ccnc5)(CO3)C4)cccc12` [Example 6646, N5-((4-((1H-imidazol-1-yl)methyl)-2-oxabicyclo[2.1.1]hexan-1-yl)methyl)isoquinoline-1,5-diamine]: 40000 to 100000 nM; for `Cn1ccc(OCC23CN(C(=O)OCc4ccccc4Cl)C(CNc4cccc5c(N)nccc45)(C2)C3)cc1=O` [Example 12023, 2-chlorobenzyl 1-(((1-aminoisoquinolin-5-yl)amino)methyl)-4-(((1-methyl-2-oxo-1,2-dihydropyridin-4-yl)oxy)methyl)-2-azabicyclo[2.1.1]hexane-2-carboxylate]: 10 to 100 nM; for `Cn1ccc(OCC23CN(C(=O)Cc4cccc5[nH]ccc45)C(CNc4cccc5c(N)nccc45)(C2)C3)cc1=O` [Example 12040, 4-((2-(2-(1H-indol-4-yl)acetyl)-1-(((1-aminoisoquinolin-5-yl)amino)methyl)-2-azabicyclo[2.1.1]hexan-4-yl)methoxy)-1-methylpyridin-2(1H)-one]: 10 to 100 nM. The same measure for `Cn1ccc(OCC23CC(CNc4cccc5c(N)nccc45)(CN2C(=O)NCc2ccccc2)C3)cc1=O` [Example 13012, 4-(((1-aminoisoquinolin-5-yl)amino)methyl)-N-benzyl-1-(((1-methyl-2-oxo-1,2-dihydropyridin-4-yl)oxy)methyl)-2-azabicyclo[2.1.1]hexane-2-carboxamide]: 10 to 100 nM; for `Nc1nccc2c(NCC34CC(COc5ccn6c(C(F)(F)F)nnc6c5)(CCO3)C4)cccc12` [Example 10961, N5-((5-(((3-(trifluoromethyl)-[1,2,4]triazolo[4,3-a]pyridin-7-yl)oxy)methyl)-2-oxabicyclo[3.1.1]heptan-1-yl)methyl)isoquinoline-1,5-diamine]: 300 to 1000 nM. Regarding `Cc1cn(C)c(=O)nc1OCC12CCOC(CNc3cccc4c(N)nccc34)(C1)C2` [Example 10962, 4-((1-(((1-aminoisoquinolin-5-yl)amino)methyl)-2-oxabicyclo[3.1.1]heptan-5-yl)methoxy)-1,5-dimethylpyrimidin-2(1H)-one], the IC50 was 1000 to 3000 nM. The same measure for `Nc1nccc2c(NCC34CC(COc5cc6nccn6cn5)(CO3)C4)cccc12` [Example 6623, N5-((4-((imidazo[1,2-c]pyrimidin-7-yloxy)methyl)-2-oxabicyclo[2.1.1]hexan-1-yl)methyl)isoquinoline-1,5-diamine]: 3000 to 10000 nM. Regarding `Cn1ccc(OCC23CN(C(=O)OC(C)(C)C)C(CNc4ccc5cnccc5c4)(C2)C3)cc1=O` [Example 12045, tert-butyl 1-((isoquinolin-6-ylamino)methyl)-4-(((1-methyl-2-oxo-1,2-dihydropyridin-4-yl)oxy)methyl)-2-azabicyclo[2.1.1]hexane-2-carboxylate], the IC50 was in the range of 10000 to 40000 nM. Regarding `Cn1ccc(OCC23CN(C(=O)CCc4cccc(Br)c4)C(CNc4cccc5c(N)nccc45)(C2)C3)cc1=O` [Example 12053, 4-((1-(((1-aminoisoquinolin-5-yl)amino)methyl)-2-(3-(3-bromophenyl)propanoyl)-2-azabicyclo[2.1.1]hexan-4-yl)methoxy)-1-methylpyridin-2(1H)-one], the IC50 is 10 to 100 nM.
